Laboratory results reported in patent US11034658B2, “Pyridinyl pyrazoles as modulators of RORγT” (Janssen Pharmaceutica NV, priority 2018, dated 2021).

What was measured:
[1] = target: human RORγt ligand binding domain (RORγt LBD) (Homo sapiens (Human), UniProt P51449); experiment: RORγt ThermoFluor assay
From the text: ThermoFluor® is a fluorescence based assay that estimates ligand binding affinities by measuring the effect of a ligand on protein thermal stability (Pantoliano, M. W., Petrella, E. C., Kwasnoski, J. D., Lobanov, V. S., Myslik, J., Graf, E., Carver, T., Asel, E., Springer, B. A., Lane, P., and Salemme, F. R. (2001) High-density miniaturized thermal shift assays as a general strategy for drug discovery. J Biomol Screen 6, 429-40, and Matulis, D., Kranz, J. K., Salemme, F. R., and Todd, M. J. (2005) Thermodynamic stability of carbonic anhydrase: measurements of binding affinity and stoichiometry using ThermoFluor. Biochemistry 44, 5258-66). This approach is applicable to a wide variety of systems, and rigorous in theoretical interpretation through quantitation of equilibrium binding constants (KD).
The shift in the melting point described as a ΔTm is proportional to the concentration and affinity of the ligand. The compound potency may be compared as a rank order of either values at a single compound concentration or in terms of KD values, estimated from concentration response curves.
RORγt ThermoFluor® Assay Construct
For the RORγt construct used in the ThermoFluor® assay, numbering for the nucleotide sequences was based on the reference sequence for human RORγt, transcript variant 2, NCBI Accession: NM 001001523.1 (SEQ ID NO:1). Nucleotides 850-1635 (SEQ ID NO:2) coding for the wild type human RORγt ligand binding domain (RORγt LBD) were cloned into the pHIS1 vector, a modified pET E. coli expression vector (Accelagen, San Diego), containing an in-frame N-terminal His-tag and a TurboTEV protease cleavage site (ENLYFQG, SEQ ID NO:3) upstream of the cloned insert sequence. The amino acid sequence for the RORγt construct used in the Thermofluor® assay is shown as SEQ ID NO:4.
ThermoFluor® experiments were carried out using instruments owned by Janssen Research and Development, L.L.C. through its acquisition of 3-Dimensional Pharmaceuticals, Inc. 1,8-ANS (Invitrogen) was used as a fluorescent dye. Protein and compound solutions are dispensed into black 384-well polypropylene PCR microplates (Abgene) and overlayed with silicone oil (1 μL, Fluka, type DC 200) to prevent evaporation.
Bar-coded assay plates are robotically loaded onto a thermostatically controlled PCR-type thermal block and then heated at a typical ramp-rate of 1° C./min for all experiments. Fluorescence was measured by continuous illumination with UV light (Hamamatsu LC6) supplied via fiber optic and filtered through a band-pass filter (380-400 nm; >6 OD cutoff). Fluorescence emission of the entire 384-well plate was detected by measuring light intensity using a CCD camera (Sensys, Roper Scientific) filtered to detect 500±25 nm, resulting in simultaneous and independent readings of all 384 wells. Images were collected at each temperature, and the sum of the pixel intensity in a given area of the assay plate was recorded versus temperature. Reference wells contained RORγt without compounds, and the assay conditions were as follows:
Project compounds were arranged in a pre-dosed mother plate (Greiner Bio-one) wherein compounds are serially diluted in 100% DMSO by 1:2 from a high concentration of 10 mM over 12 columns within a series (column 12 is a reference well containing DMSO, no compound). The compounds were robotically dispensed directly into assay plates (1×=46 nL) using a Hummingbird capillary liquid handling instrument (Digilab). Following compound dispense, protein and dye in buffer was added to achieve the final assay volume of 3 μL, followed by 1 μL of silicone oil.
The binding affinity was estimated as described previously (Matulis, D., Kranz, J. K., Salemme, F. R., and Todd, M. J. (2005) Thermodynamic stability of carbonic anhydrase: measurements of binding affinity and stoichiometry using ThermoFluor®. Biochemistry 44, 5258-66) using the following thermodynamic parameters of protein unfolding:
Reference RORγt Tm: 47.8° C.

[2] = target: full-length human RORγt (GAL4-DBD-RORγt fusion) in HEK293T cells (Homo sapiens (Human), UniProt P51449); experiment: RORγt (full-length human) reporter assay, conditions A or B; type: cell-based; details: for IC50: HEK293T cells, read-out: RORγt (FL) Reporter Assay A or B, IC50; for inhibition at 3 µM: 3 μM compound concentration (footnote *)
Sequence of full-length human RORγt (GAL4-DBD-RORγt fusion) in HEK293T cells (P51449 other isoform, or with tags, fused parts or gaps): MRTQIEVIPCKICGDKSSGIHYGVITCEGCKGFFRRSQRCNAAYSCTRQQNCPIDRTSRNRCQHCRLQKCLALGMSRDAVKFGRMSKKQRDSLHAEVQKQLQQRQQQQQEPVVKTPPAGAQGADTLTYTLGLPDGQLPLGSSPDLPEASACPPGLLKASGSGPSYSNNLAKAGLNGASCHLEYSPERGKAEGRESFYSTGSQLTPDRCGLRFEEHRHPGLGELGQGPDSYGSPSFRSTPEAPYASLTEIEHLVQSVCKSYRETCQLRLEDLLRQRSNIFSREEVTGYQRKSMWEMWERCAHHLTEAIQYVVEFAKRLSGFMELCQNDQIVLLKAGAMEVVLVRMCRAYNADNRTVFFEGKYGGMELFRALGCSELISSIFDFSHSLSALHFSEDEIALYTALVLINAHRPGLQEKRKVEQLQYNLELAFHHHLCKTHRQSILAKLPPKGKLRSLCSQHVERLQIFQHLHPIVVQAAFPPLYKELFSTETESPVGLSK
Method: RORγt (Full-Length Human) Reporter Assay:
(§1) HEK293T cells were plated at 35,000 per well in 96-well plate in medium of DMEM with 10% FBS. […] After overnight (16 to 20 hours) incubation, media were removed and cells were lysed with 50 μL Glo Lysis Buffer (Promega) for 10-15 minutes followed by 10 minute incubation with 50 μL Dual Glo reagent (Promega) at room temperature. Firefly luciferase luminescence was measured using a BMG Pherastar plate reader. To each well, 50 μL Stop and Glo reagent was added and incubated for 10 minutes at room temperature. Renilla luminescence was measured using a BMG Pherastar plate reader. To calculate the effect of compounds on RORγt activity, firefly values were normalized against values of DMSO only and values of reference compound at saturating concentration, then further normalized against Renilla signals. IC50s were generated by plotting final Renilla normalized data against compound concentration and percent inhibition was calculated against DMSO control.
as §1, with “at 8750 cells” for “at 35,000”, “in 384-well” for “in 96-well”, “with 20” for “with 50”, “well, 20” for “well, 50”

[3] = HEK-293T, read-out: RORγt (FL) Reporter Assay A or B, % inhibition

Sequence of human RORγt ligand binding domain (RORγt LBD) (P51449 other isoform, or with tags, fused parts or gaps): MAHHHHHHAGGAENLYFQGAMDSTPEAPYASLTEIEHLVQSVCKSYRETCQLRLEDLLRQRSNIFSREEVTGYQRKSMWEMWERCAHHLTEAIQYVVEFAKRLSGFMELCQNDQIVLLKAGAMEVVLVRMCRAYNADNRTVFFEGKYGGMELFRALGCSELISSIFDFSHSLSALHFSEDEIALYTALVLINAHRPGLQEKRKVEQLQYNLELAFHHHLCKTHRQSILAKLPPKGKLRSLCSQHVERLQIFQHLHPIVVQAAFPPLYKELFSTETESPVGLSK

| SMILES | Kd [1] [nM] | IC50 [2] [nM] | inhibition at 3 µM [2, 3] [%] | inhibition at 2 µM ([2]; HEK-293T, 2 μM compound concentration, read-out: RORγt (FL) Reporter Assay A or B, % inhibition) [%] |
| --- | --- | --- | --- | --- |
| CCn1nc(C(=O)NC[C@H]2CC[C@H](S(C)(=O)=O)CC2)c(Cl)c1-c1cnc(C[C@H](C)C(F)(F)F)cc1OC(F)F (single isomer, unassigned) [Example 14, 4-Chloro-5-(4-(difluoromethoxy)-6-((S*)-3,3,3-trifluoro-2-methylpropyl)pyridin-3-yl)-1-ethyl-N-(((1r,4S)-4-(methylsulfonyl)cyclohexyl)methyl)-1H-pyrazole-3-carboxamide] | 3.6 | 36 | 82 | – |
| CCn1nc(C(=O)NC[C@H]2CC[C@H](S(C)(=O)=O)CC2)c(C)c1-c1cnc(C[C@H](C)C(F)(F)F)cc1OC(F)F (single isomer, unassigned) [Example 16, 5-(4-(Difluoromethoxy)-6-((S*)-3,3,3-trifluoro-2-methylpropyl)pyridin-3-yl)-1-ethyl-4-methyl-N-(((1r,4S)-4-(methylsulfonyl)cyclohexyl)methyl)-1H-pyrazole-3-carboxamide] | 5.2 | 16 | 101 | – |
| CCn1nc(C(=O)NC[C@H]2CC[C@H](S(C)(=O)=O)CC2)c(C)c1-c1cnc(C[C@@H](C)C(F)(F)F)cc1OC(F)F (single isomer, unassigned) [Example 19, 5-(4-(Difluoromethoxy)-6-((R*)-3,3,3-trifluoro-2-methylpropyl)pyridin-3-yl)-1-ethyl-4-methyl-N-(((1r,4R)-4-(methylsulfonyl)cyclohexyl)methyl)-1H-pyrazole-3-carboxamide] | 17 | 40 | 105 | – |
| CCn1nc(C(=O)NC[C@H]2CC[C@H](S(C)(=O)=O)CC2)c(Cl)c1-c1cnc(C[C@@H](C)C(F)(F)F)cc1OC (single isomer, unassigned) [Example 61, 4-Chloro-1-ethyl-5-(4-methoxy-6-((R*)-3,3,3-trifluoro-2-methylpropyl)pyridin-3-yl)-N-((1r,4r)-4-(methylsulfonyl)cyclohexyl)methyl)-1H-pyrazole-3-carboxamide] | 16 | 110 | – | 87 |
| CCn1nc(C(=O)NC[C@@]2(O)CC[C@H](S(C)(=O)=O)C[C@@H]2O)c(Cl)c1-c1cnc(CC(C)(C)C(F)(F)F)cc1OC(F)F (stereo in doubt) [Example 4, 4-Chloro-5-(4-(difluoromethoxy)-6-(3,3,3-trifluoro-2,2-dimethylpropyl)pyridin-3-yl)-N-(((1S*,2S*,4S*)-1,2-dihydroxy-4-(methylsulfonyl)cyclohexyl)methyl)-1-ethyl-1H-pyrazole-3-carboxamide] | 9.1 | 55 | 100 | – |

The remaining compounds from weak to strong by Kd [1], led by results:

| Kd [1] [nM] | IC50 [2] [nM] | inhibition at 3 µM [2, 3] [%] | SMILES | inhibition at 2 µM ([2]; HEK-293T, 2 μM compound concentration, read-out: RORγt (FL) Reporter Assay A or B, % inhibition) [%] |
| --- | --- | --- | --- | --- |
| 34 | 99 | 123 | CCn1nc(C(=O)NC[C@]2(O)CC[C@@H](S(C)(=O)=O)CC2)c(C)c1-c1cnc(C[C@@H](C)C(F)(F)F)cc1OC(F)F (single isomer, unassigned) [Example 20, 5-(4-(Difluoromethoxy)-6-((R*)-3,3,3-trifluoro-2-methylpropyl)pyridin-3-yl)-1-ethyl-N-(((1s,4S)-1-hydroxy-4-(methylsulfonyl)cyclohexyl)methyl)-4-methyl-1H-pyrazole-3-carboxamide] | – |
| 18 | 140 | 100 | CCn1nc(C(=O)NC[C@]2(O)CC[C@@H](S(C)(=O)=O)CC2)c(Cl)c1-c1cnc(C[C@@H](C)C(F)(F)F)cc1OC(F)F (single isomer, unassigned) [Example 18, 4-Chloro-5-(4-(difluoromethoxy)-6-((R*)-3,3,3-trifluoro-2-methylpropyl)pyridin-3-yl)-1-ethyl-N-(((1s,4S)-1-hydroxy-4-(methylsulfonyl)cyclohexyl)methyl)-1H-pyrazole-3-carboxamide] | – |
| 12 | 98 | 71 | CCn1nc(C(=O)NC[C@]2(O)CC[C@@H](S(C)(=O)=O)CC2)c(Cl)c1-c1cnc(C[C@H](C)C(F)(F)F)cc1OC(F)F (single isomer, unassigned) [Example 15, 4-Chloro-5-(4-(difluoromethoxy)-6-((S*)-3,3,3-trifluoro-2-methylpropyl)pyridin-3-yl)-1-ethyl-N-(((1s,4R)-1-hydroxy-4-(methylsulfonyl)cyclohexyl)methyl)-1H-pyrazole-3-carboxamide] | – |
| 8.1 | 63 | 105 | CCn1nc(C(=O)NC[C@]2(O)CC[C@@H](S(C)(=O)=O)C[C@H]2O)c(Cl)c1-c1cnc(CC(C)(C)C(F)(F)F)cc1OC(F)F (stereo in doubt) [Example 3, 4-Chloro-5-(4-(difluoromethoxy)-6-(3,3,3-trifluoro-2,2-dimethylpropyl)pyridin-3-yl)-N-(((1R*,2R*,4R*)-1,2-dihydroxy-4-(methylsulfonyl)cyclohexyl)methyl)-1-ethyl-1H-pyrazole-3-carboxamide] | – |
| 4.1 | 34 | 125 | CCn1nc(C(=O)NC[C@H]2CC[C@H](S(C)(=O)=O)CC2)c(Cl)c1-c1cnc(C[C@@H](C)C(F)(F)F)cc1OC(F)F (single isomer, unassigned) [Example 17, 4-Chloro-5-(4-(difluoromethoxy)-6-((R*)-3,3,3-trifluoro-2-methylpropyl)pyridin-3-yl)-1-ethyl-N-(((1r,4R)-4-(methylsulfonyl)cyclohexyl)methyl)-1H-pyrazole-3-carboxamide] | – |
| 3.2 | 35 | 97 | CCn1nc(C(=O)NC[C@@]2(O)CC[C@H](S(C)(=O)=O)C[C@@H]2O)c(C)c1-c1ccc(CC(C)(C)C(F)(F)F)nc1OC(F)F (relative stereo) [Example 51, 5-(2-(Difluoromethoxy)-6-(3,3,3-trifluoro-2,2-dimethylpropyl)pyridin-3-yl)-N-(((1S*,2S*,4S*)-1,2-dihydroxy-4-(methylsulfonyl)cyclohexyl)methyl)-1-ethyl-4-methyl-1H-pyrazole-3-carboxamide] | – |
